In this test the target is T1, heparinase I (heparin lyase I) of Flavobacterium heparinum, native purified (chromatofocused) enzyme, SEQ ID NO: 2 (Pedobacter heparinus, UniProt Q05819).
T1 construct: mature heparinase I from F. heparinum contains two free cysteines and not a disulfide bridge; made in house; host or cells: Flavobacterium heparinum (native enzyme purified from cell extract: hydroxyapatite, QAE-Sephadex, chromatofocusing)
The test is described as follows: Inactivation of heparinase I activity by sulfhydryl-specific reagents. In kind it is biochemical. Conditions: for inactivation rate constant / inactivation time constant τ: PCMB; for inactivation time constant τ: pseudo first order fit; for time to complete inactivation: PBS; for inactivation rate: 500 mM iodoacetic acid. The method, then:
Purification of heparinase I: Lyophilized powdered extracts of F. heparinum were prepared according to the method of Yang et al. (1985). Partially purified heparinase I was prepare by step gradient elution of powdered cell extracts from a hydroxyapatite column followed by reverse adsorption on a QAE-Sephadex column Further purification of the enzyme was accomplished with a chromatofocusing, 1 cm×18 cm column with PBE resin (Pharmacia). A 1.5-2.5 ml aliquot of protein (0.5-1.5 mg) in 0.01 M phosphate (pH 6.8) was applied to the column equilibrated with 0.025 M ethanolamine (pH 9.4 with acetic acid). Elution was carried out with 150 ml of 10% Polybuffer 96 (pH 6.0 with acetic acid). […] Fractions (1.5-2.0 ml) were collected in tubes containing 0.2 ml of 0.5 M phosphate buffer at pH 6.8. Immediately after collection, the fractions were assayed for heparinase I activity. […] The active fractions were pooled, and NaCl was added from a 2.0 M aqueous solution to give a final concentration of 0.1 M. Heparinase I was concentrated and equilibrated with a buffer consisting of 0.01 M NaH2 PO4 and 0.1 M NaCl at pH 6.8 (PBS) with Centricon P-30 microconcentrators (Amicon, Mass.).
Modification with Organomercurials: The reversible, sulfhydryl specific anion, PCMB, was utilized to determine the effects of sulfhydryl modification on heparinase I activity. […] The time course of inactivation in the presence and absence of heparin also was determined.
At =Ao exp(-t/.tau.)+A.infin.
where At is the fractional activity at time t, Ao is the initial factional activity, A.infin. is the residual activity at infinite time, and .tau. is the inactivation time constant in minutes or the reciprocal rate constant. Time constants were obtained by a nonlinear least squares fit of the data to the equation.
The effect of NEM modification on heparinase I activity was examined in an attempt to elucidate structural influences on the cysteine reactivities.
In order to ascertain whether significant levels of NEM bind heparinase I, labeling studies with [^3 H]NEM were undertaken.

Results on four compounds are retold here after patent US6217863A, “Rationally designed polysaccharide lyases derived from heparinase I” (Massachusetts Institute of Technology, priority 1999, dated 2001).

Where two headings read alike, the source gives them in different places.

T1 sequence (Q05819 22-384): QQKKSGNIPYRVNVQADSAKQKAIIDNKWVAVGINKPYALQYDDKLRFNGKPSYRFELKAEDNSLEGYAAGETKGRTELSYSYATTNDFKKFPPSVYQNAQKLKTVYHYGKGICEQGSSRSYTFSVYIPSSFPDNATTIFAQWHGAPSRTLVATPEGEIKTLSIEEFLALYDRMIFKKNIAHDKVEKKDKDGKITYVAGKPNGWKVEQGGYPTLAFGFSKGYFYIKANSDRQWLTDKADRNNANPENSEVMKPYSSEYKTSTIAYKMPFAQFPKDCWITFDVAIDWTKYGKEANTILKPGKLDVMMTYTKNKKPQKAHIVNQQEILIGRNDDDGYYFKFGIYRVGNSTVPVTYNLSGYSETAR

As for `CCN1C(=O)C=CC1=O` [NEM, N-ethylmaleimide], the inhibition at 1000 µM (1 mM NEM overnight at 4° C., read-out: activity loss) was ~15% and the inhibition at 1000 µM (1 mM [3H]NEM, non-denatured enzyme, 20 h, read-out: loss of activity) was 15%. For the same compound, where the note is “1 mM NEM, pH 7.0, over an 8 h period”, the change in activity result is on record as “little change in activity”. The inhibition at 10000 µM (0.75 h, 10 mM NEM, pH 7.0, 4° C., within 45 min, read-out: enzymatic activity lost) is 15%.
As for `O=C(O)c1cc[c]([Hg][Cl])cc1` [PCMB], the “reversible loss of enzyme activity” value (PCMB at 2.5-100 μM, 4° C.) worked out at 95±5%. Moreover, the inactivation rate constant stood at 1.2 min⁻¹ (0.0 mg/ml heparin) and 0.2 min⁻¹ (0.5 mg/ml heparin). For the same compound, the “inactivation time constant τ” value by setting is: (absence of heparin) 0.8 ± 1 min; (presence of 0.5 mg/ml heparin) 5 ± 1 min.
In the case of `NC(=O)CI` [iodoacetamide], where the note is “120 mM iodoacetamide, 24 h incubation, PBS pH 7.0, 4° C.”, the inhibition at 120000 µM is 15%. The change in activity result (2, 5, 10 and 120 mM iodoacetamide in PBS, pH 7.0, 4° C., up to 24 h) is listed as “little change in activity”.
For the compound `O=C(O)CI` [iodoacetic acid], the “time to complete inactivation” value by setting is: (0.1 mM iodoacetic acid, 4° C.) ≤ 15 h; (1 mM iodoacetic acid, 4° C.) ≤ 0.25 h. Also, the inactivation rate by setting is: (no heparin) 3±1×10^-3 h^-1; (presence of 2 mg/ml heparin) 5±2×10^-4 h^-1. For the same compound, the inhibition at 2000 µM (10 min, 2 mM iodoacetic acid in PBS, 4° C., within 10 min, read-out: heparinase I inactivated) is 95 ± 5%. The “retention of activity relative to untreated heparinase I” value (iodoacetic acid treated enzyme (heparin protection experiment)) stood at 15±5%.
